# Data: ChEMBL document CHEMBL1201862, “PubChem BioAssay data set” (2004)
# Activity calls are given as the source filed them.
# Legend:
# [1] = luciferase reporter signal suppression in cells – H4 neuroglioma cells, luminescence, dose response (AID 1990); format: functional, cell-based
# [2] = fluconazole-exposed Candida albicans growth modulators – fluorescence, retest, confirmation (AID 2467); format: functional, cell-based
# [3] = alpha-synuclein stem-loop luciferase translation blockers – H4 neuroglioma cells, luminescence, confirmation (AID 1988); format: functional, cell-based
# Streptococcus = assay: GAS UMAA2166 growth inhibition – luminescence, BacTiterGlo, counter-screen for streptokinase expression inhibitor project, dose response (AID 1915); format: functional, organism-based;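 also: potency for reduction of bacterial viability or growth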
# [4] = target: T1, Serine/threonine-protein phosphatase (Candida dubliniensis (strain CD36 / CBS 7987 / NCPF 3949 / NRRLY-17841) (Yeast), UniProt B9W6M3); assay: blockers of CaCl2-induced CDRE-lacZ signaling – S. cerevisiae, luminescence, secondary, dose response (AID 2388); format: functional, cell-based;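 also: yeast reporter cells carrying a calcineurin-responsive lacZ construct stimulated with calcium chloride; luminescent beta-galactosidase reporter signal in whole cells rather than isolated phosphatase activity; potency for inhibition where a drop in reporter signal means calcineurin blockade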
# T1 sequence (B9W6M3 whole entry): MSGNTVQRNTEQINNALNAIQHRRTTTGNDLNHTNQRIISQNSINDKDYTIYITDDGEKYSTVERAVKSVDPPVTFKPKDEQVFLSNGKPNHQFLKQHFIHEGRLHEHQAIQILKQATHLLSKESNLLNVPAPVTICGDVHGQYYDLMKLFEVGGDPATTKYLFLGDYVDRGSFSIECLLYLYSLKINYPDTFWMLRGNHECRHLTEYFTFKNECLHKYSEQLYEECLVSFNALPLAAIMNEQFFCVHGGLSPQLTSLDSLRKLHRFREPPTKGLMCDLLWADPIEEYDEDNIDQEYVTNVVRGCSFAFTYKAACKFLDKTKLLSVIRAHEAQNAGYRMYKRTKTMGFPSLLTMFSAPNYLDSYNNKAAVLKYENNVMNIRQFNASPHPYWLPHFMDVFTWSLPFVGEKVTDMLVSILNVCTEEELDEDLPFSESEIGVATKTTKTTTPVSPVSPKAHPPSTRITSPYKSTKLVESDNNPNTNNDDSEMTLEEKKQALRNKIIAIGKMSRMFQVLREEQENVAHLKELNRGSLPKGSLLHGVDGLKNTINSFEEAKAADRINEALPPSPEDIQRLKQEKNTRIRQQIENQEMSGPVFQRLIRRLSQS
# Vero [5] = assay: cells; format: functional; conditions: Chlorocebus sabaeus
# [6] = target: ATP-dependent molecular chaperone HSP82 (Candida albicans (strain WO-1) (Yeast), UniProt C4YTQ8); assay: steroid-induced GRE reporter decrease in yeast – S. cerevisiae, luminescence, Hsp90 inhibitor project, dose response (AID 2400); format: functional, cell-based;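 also: beta-galactosidase luminescence from glucocorticoid response element reporter as proxy for Hsp90 function; inhibitor potency where signal loss means Hsp90 inhibition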
# [7] = NIH-3T3 fibroblast cytotoxicity, dose response, cytotoxicity control, cell-based, fluorescence, Alamar Blue, secondary assay (AID 2327); format: functional;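 also: NIH-3T3 mouse fibroblasts cultured with fluconazole at 8 µg/mL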
# [8] = system: Streptococcus sp. 'group A'; assay: Streptococcus pyogenes SK(-)GAS viability under kanamycin – luminescence, BacTiterGlo, confirmation, counter-screen for streptokinase expression inhibitor project, dose response (AID 1900); format: functional, organism-based
# [9] = Luminescence Cell-Based Dose Response HTS to Identify Inhibitors of 5'UTR Stem-Loop Driven Prion Protein mRNA Translation in H4 Neuroglioblastoma Cells. [Related pubchem assays: 1827 (Project Summary), 1813 (Primary HTS)]; format: functional
# Vero [10] = assay: viability of Vero cells under compound – cytotoxicity control for flavivirus capping enzyme inhibitors (AID 588742); format: functional; conditions: Chlorocebus sabaeus
# [11] = target: T2, Polyadenylate-binding protein 1 (Homo sapiens, UniProt P11940); assay: MLLE binding blockers, Cy5 peptide tracer – biochemical, fluorescence polarization, Cy5-PAM2 peptide, secondary, miRNA deadenylation inhibitor project, dose response (AID 602260); format: functional; conditions: read-out: IC50_Mean
# Coagulation factor XII = target: T3, Coagulation factor XII (Homo sapiens, UniProt P00748); format: functional;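 also: activated factor XIIa alpha cleaving a fluorogenic AMC peptide substrate; inhibitor potency from loss of enzyme activity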
# T3 sequence (P00748 whole entry): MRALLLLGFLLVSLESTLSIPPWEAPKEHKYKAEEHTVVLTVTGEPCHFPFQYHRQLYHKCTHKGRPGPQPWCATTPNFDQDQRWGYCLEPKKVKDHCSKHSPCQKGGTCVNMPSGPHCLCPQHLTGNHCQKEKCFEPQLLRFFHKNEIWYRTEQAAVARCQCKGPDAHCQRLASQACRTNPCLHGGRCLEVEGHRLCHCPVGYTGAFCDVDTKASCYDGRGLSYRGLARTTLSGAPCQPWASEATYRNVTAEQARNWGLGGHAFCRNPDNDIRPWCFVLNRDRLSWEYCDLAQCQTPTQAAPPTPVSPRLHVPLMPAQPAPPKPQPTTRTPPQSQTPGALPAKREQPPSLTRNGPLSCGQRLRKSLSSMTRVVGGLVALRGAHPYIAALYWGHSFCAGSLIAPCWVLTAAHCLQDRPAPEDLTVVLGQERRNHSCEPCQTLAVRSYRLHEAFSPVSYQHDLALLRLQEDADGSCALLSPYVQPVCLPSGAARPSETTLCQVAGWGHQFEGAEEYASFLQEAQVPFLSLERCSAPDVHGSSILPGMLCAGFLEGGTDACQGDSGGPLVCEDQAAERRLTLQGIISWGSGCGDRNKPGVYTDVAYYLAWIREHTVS
# [12] = Trypanosoma cruzi growth suppression in host cells – NIH3T3 host cells, beta-gal luminescence, confirmation (AID 2044); format: functional, cell-based;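 also: intracellular parasites grown in NIH/3T3 mouse fibroblasts as host cells; luminescent beta-galactosidase reporter signal from transgenic T. cruzi replicating inside host cells; inhibitors lower the luminescence signal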
# [13] = target: Latent membrane protein 1 (Human herpesvirus 4 (strain B95-8), UniProt P03230); assay: LMP1 TES1 pathway selectivity over dsRED control – imaging, HEK293T, dual-color eGFP/dsRED, cherry-picks, selectivity assay for LMP1 NF-kB inhibitor project, dose response (AID 588398); format: functional, cell-based
# [14] = target: T2, Polyadenylate-binding protein 1; assay: MLLE domain peptide-binding blockers, IC50 – biochemical, fluorescence polarization, FITC-PAM2 peptide, dose response (AID 602259); format: functional; conditions: read-out: IC50_Mean
# [15] = NIH3T3 cell viability loss – ATP luminescence, mouse fibroblasts, counter-screen, dose response (AID 2010); format: functional, cell-based;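 also: cells exposed to compound for about 90 hours before reading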
# Beta-galactosidase = Beta-galactosidase (Escherichia coli, UniProt Q8VNN2); assay: PubChem AID 485352; format: functional
# [16] = microbe, parasite or virus in culture; format: functional; conditions: Mycobacterium tuberculosis
# [17] = target: T4, Type-1 angiotensin II receptor (Homo sapiens, UniProt P30556); assay: antagonism of angiotensin II type 1 receptor – cell-based, uHTS hits, selectivity assay for APJ receptor antagonist project, dose response (AID 463214); format: functional;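 also: antagonist potency against angiotensin II stimulated AT1 response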
# T4 sequence (P30556 whole entry): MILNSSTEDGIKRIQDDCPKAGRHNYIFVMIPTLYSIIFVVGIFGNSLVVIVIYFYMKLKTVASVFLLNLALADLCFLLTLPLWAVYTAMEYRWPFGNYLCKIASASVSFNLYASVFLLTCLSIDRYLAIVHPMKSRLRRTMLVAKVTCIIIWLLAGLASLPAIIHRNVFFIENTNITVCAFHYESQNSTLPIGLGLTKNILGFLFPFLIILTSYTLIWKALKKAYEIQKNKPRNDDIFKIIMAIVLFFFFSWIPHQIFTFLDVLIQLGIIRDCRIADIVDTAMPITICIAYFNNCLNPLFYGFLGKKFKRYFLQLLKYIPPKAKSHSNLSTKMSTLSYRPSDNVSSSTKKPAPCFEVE
# INS1 = assay: INS-1E survival protection against cytokine death – cell-based, luminescence, retest, dose response (AID 449756); format: functional; conditions: Rattus norvegicus;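 also: cell death triggered by IL-1 beta plus TNF-alpha plus IFN-gamma mixture; protective hits raise ATP signal compared with cytokine alone wells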
# [18] = target: Heat shock protein HSP 90-alpha (Homo sapiens, UniProt P07900); format: functional, organism-based
# [19] = target: Induced myeloid leukemia cell differentiation protein Mcl-1 (Homo sapiens, UniProt Q07820); format: functional
# Beta Lactamase = Beta Lactamase (Pseudomonas aeruginosa, UniProt Q932Y6); assay: BLA reporter interference, concentration series – BLA reporter cells, FRET fluorescence, artefact control for TLR9-MyD88 binding inhibitor project, dose response (AID 588341); format: cell-based;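 also: cell based assay in CHO-K1 cells stably expressing beta-lactamase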
# CHO = CHO cell viability loss, potency – luminescence, cytotoxicity control for TLR9-MyD88 binding inhibitor project, dose response (AID 588339); format: functional, cell-based, hamster; conditions: Cricetulus griseus;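 also: CHO cells stably coexpressing TLR9 and MyD88 fusions from primary screen; compound exposure lasted 48 hours before viability readout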
# Phospholipase D2 = Phospholipase D2 (Homo sapiens, UniProt O14939); assay: cellular phospholipase D2 inhibition IC50 – cell-based, dose response (AID 602147); format: functional;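 also: cellular assay in HEK293 cells overexpressing GFP-tagged PLD2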
# Phospholipase D1 = Phospholipase D1 (Homo sapiens, UniProt Q13393); assay: cellular phospholipase D1 inhibition IC50 – cell-based, dose response (AID 602151); format: functional;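 also: cellular PLD1 assay in Calu-1 cells stimulated with PMA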
# Phospholipase D1, sequence (Q13393 whole entry): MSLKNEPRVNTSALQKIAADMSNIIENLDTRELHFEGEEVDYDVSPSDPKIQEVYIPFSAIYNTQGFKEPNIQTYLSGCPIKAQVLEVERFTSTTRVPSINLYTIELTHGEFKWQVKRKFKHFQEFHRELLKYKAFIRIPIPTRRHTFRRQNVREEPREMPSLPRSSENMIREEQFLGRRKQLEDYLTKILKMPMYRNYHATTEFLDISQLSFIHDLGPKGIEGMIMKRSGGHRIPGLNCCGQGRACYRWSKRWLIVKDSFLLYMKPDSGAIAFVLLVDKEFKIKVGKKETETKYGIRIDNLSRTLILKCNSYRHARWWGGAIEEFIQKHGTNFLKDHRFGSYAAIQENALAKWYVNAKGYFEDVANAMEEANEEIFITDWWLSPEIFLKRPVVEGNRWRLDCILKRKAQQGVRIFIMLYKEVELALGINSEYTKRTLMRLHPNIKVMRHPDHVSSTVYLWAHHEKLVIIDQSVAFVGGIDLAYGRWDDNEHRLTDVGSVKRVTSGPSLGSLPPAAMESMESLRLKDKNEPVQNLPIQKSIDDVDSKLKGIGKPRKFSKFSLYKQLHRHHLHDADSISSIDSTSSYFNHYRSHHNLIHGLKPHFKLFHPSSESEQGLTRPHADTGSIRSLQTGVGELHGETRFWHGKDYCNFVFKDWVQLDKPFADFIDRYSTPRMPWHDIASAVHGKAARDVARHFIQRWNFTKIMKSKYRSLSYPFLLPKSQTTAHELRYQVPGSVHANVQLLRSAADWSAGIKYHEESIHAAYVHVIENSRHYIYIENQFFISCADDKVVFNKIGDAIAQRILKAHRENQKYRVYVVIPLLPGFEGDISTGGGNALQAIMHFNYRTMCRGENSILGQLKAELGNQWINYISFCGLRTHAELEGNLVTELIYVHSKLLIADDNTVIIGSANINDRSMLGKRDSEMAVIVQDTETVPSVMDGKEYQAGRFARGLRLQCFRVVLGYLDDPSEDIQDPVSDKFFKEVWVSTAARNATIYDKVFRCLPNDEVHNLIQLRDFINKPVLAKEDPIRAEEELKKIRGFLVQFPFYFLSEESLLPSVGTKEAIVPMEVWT
# T2 sequence (P11940 whole entry): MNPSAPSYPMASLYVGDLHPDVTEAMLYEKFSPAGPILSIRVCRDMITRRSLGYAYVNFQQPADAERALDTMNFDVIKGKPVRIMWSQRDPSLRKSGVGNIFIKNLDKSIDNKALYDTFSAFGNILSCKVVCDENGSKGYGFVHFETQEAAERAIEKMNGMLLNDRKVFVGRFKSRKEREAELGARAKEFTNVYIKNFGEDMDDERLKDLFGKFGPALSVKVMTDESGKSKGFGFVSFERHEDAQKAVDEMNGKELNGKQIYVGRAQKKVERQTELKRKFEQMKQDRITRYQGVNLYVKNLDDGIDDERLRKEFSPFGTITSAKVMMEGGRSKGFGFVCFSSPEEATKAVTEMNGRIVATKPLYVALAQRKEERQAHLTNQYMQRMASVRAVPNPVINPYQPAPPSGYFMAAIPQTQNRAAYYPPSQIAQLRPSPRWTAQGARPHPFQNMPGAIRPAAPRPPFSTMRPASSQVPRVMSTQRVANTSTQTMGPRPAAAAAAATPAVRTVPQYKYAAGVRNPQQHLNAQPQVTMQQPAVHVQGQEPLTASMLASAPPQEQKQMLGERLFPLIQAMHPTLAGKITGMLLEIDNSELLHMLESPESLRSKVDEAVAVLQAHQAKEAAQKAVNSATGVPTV
# Induced myeloid leukemia cell differentiation protein Mcl-1, sequence (Q07820 whole entry): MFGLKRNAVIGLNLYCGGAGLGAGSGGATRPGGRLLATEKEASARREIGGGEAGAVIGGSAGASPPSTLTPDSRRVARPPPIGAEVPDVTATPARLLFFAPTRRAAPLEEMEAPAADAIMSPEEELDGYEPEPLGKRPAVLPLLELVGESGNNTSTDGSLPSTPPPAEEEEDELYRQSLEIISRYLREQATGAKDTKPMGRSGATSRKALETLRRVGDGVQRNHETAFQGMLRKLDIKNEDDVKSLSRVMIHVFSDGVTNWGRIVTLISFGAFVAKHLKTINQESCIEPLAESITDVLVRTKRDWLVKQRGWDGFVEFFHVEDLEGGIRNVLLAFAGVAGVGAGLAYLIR
# Beta Lactamase, sequence (Q932Y6 whole entry, the tested form may be a part): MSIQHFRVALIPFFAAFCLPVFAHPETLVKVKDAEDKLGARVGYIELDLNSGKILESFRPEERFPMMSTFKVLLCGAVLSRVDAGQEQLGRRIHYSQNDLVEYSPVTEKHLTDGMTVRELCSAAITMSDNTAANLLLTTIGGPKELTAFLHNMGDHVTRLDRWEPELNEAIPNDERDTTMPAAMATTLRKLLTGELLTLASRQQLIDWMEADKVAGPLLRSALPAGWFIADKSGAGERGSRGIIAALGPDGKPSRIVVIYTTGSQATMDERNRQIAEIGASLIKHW
# Beta-galactosidase, sequence (Q8VNN2 whole entry): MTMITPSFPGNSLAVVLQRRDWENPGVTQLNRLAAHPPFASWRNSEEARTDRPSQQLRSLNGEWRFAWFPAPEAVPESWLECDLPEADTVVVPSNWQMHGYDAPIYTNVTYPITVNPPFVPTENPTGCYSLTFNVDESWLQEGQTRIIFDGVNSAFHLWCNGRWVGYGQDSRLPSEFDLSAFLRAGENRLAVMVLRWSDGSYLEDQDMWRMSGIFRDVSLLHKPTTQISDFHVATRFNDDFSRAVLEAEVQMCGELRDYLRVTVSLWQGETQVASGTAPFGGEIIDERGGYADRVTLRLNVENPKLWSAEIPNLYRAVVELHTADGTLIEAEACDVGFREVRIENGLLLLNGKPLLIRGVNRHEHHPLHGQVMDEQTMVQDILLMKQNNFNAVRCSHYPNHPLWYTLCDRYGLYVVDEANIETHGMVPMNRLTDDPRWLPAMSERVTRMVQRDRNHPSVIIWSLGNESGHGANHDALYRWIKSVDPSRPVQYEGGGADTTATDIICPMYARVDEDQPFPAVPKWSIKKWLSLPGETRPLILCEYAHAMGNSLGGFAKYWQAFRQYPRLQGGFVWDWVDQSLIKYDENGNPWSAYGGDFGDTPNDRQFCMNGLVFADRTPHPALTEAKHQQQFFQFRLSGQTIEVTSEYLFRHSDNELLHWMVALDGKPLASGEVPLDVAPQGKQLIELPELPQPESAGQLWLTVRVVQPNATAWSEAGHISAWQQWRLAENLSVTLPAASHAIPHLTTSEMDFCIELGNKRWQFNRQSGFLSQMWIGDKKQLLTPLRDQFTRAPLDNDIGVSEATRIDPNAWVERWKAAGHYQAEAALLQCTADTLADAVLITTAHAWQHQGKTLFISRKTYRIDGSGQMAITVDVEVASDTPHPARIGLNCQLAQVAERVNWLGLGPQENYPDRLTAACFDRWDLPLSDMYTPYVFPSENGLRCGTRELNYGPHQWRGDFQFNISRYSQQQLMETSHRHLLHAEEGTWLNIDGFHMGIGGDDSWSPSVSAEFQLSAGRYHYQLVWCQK
# Latent membrane protein 1, sequence (P03230 whole entry, the tested form may be a part): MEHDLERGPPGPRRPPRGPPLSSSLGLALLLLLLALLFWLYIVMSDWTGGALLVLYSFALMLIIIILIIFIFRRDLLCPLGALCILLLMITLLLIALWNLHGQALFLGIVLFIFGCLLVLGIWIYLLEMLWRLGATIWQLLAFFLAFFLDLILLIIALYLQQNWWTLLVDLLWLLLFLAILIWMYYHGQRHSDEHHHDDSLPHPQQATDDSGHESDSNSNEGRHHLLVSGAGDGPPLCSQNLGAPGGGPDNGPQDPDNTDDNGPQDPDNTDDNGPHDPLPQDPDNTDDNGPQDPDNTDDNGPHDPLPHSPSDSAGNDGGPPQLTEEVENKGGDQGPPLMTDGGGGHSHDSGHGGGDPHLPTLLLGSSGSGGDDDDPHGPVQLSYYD
# ATP-dependent molecular chaperone HSP82, sequence (C4YTQ8 whole entry): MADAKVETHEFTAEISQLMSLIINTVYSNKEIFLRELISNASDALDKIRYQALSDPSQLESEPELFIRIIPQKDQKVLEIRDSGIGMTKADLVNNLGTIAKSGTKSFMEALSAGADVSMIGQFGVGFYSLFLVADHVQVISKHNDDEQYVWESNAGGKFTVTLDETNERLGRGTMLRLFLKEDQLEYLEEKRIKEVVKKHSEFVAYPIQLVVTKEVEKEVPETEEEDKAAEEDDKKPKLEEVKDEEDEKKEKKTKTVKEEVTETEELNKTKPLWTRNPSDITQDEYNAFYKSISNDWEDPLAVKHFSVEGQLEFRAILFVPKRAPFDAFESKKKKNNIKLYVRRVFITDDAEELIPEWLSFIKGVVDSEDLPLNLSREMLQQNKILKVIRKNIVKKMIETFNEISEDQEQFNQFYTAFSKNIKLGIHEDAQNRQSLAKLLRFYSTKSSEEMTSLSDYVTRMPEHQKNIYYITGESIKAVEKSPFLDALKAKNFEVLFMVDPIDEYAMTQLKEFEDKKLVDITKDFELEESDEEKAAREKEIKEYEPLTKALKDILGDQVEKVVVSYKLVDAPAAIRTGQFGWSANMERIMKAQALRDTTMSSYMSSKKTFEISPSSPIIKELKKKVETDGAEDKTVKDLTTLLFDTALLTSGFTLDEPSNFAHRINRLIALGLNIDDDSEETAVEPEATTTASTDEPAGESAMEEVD
structure (smiles),measurement,setting,value
Cc1cccc(/C=C/C(=O)c2cc(Br)ccc(=O)c2O)c1,EC50,[1],11.6 µM (active)
same,EC50,[2],1.11 µM (active)
same,EC50,[3],9.67 µM (active)
same,EC50,Streptococcus,2.77 µM (active)
same,EC50,[4],> 180 µM (inactive)
same,CC50,Vero [5],7.95 µM (active)
same,EC50,[6],6.88 µM (active)
same,EC50,[7],42.4 µM (inconclusive)
same,EC50,[8],1.78 µM (active)
same,EC50,[9],> 120 µM (not active)
same,CC50,Vero [10],15.1 µM (active)
C=CCn1c(O)c(N=NC(S)=Nc2ccccc2F)c2cc(S(=O)(=O)N3CCOCC3)ccc21,IC50,[11],> 66 µM (inactive)
same,IC50,Coagulation factor XII,> 50 µM (inconclusive)
same,EC50,[12],0.495 µM (active)
same,AC50,[13],38.3 µM (active)
same,IC50,[14],> 66 µM (inactive)
same,EC50,[15],2.84 µM (active)
CNc1ccc2oc(C[C@H]3O[C@@]4(CC[C@H]3C)O[C@H]([C@H](C)C(=O)c3ccc[nH]3)[C@H](C)C[C@H]4C)nc2c1C(=O)O [CALCIMYCIN],EC50,[1],0.293 µM (active)
same,EC50,Beta-galactosidase,> 40 µM (inactive)
same,EC50,[3],0.172 µM (active)
same,EC50,Streptococcus,0.128 µM (active)
same,CC50,[16],0.319 µM (active)
same,IC50,[17],> 40 µM (not active)
same,EC50,[8],< 0.06 µM (active)
same,EC50,[9],0.267 µM (active)
same,AC50,INS1,2.08 µM (active)
same,AC50,[18],1.07 µM (active)
COc1ccc(C(=O)c2sc3nc(-c4ccc(OC)cc4)ccc3c2N)cc1,IC50,[19],2.99 µM (not active)
same,IC50,Beta Lactamase,4.44 µM (active)
same,IC50,CHO,36.8 µM (inactive)
O=C(NCCN1CCC2(CC1)C(=O)NCN2c1cccc(F)c1)c1cccc(F)c1,IC50,Phospholipase D2,1.49 µM (active)
same,IC50,Phospholipase D1,24 µM (active)
